According to patent US10307587B2, “Methods and devices for treating the skin” (VOMARIS INNOVATIONS, INC., priority 2014, dated 2019):

Legend:
Human keratinocytes = test: in vitro scratch assay (cell migration); type: cell-based; conditions: for increased keratinocyte migration observed with LLEC, under N-acetyl cysteine: 5 mM, pretreated 1 h before scratch assay
Description: The in vitro scratch assay is an easy, low-cost and well-developed method to measure cell migration in vitro. The basic steps involve creating a “scratch” in a cell monolayer, capturing images at the beginning and at regular intervals during cell migration to close the scratch, and comparing the images to quantify the migration rate of the cells. Compared to other methods, the in vitro scratch assay is particularly suitable for studies on the effects of cell-matrix and cell-cell interactions on cell migration, mimic cell migration during wound healing in vivo and are compatible with imaging of live cells during migration to monitor intracellular events if desired. In addition to monitoring migration of homogenous cell populations, this method has also been adopted to measure migration of individual cells in the leading edge of the scratch. Not taking into account the time for transfection of cells, in vitro scratch assay per se usually takes from several hours to overnight.
Human keratinocytes were plated under plated under placebo or a LLEC system (labeled “PROCELLERA®”). Cells were also plated under silver-only or zinc-only dressings. After 24 hours, the scratch assay was performed.
Measurement of the potential difference between adjacent zinc and silver dots when the LLEC is in contact with de-ionized water yielded a value of about 0.2 Volts. Though the potential difference between zinc and silver dots can be measured, non-intrusive measurement of the electric field arising from contact between the LLEC and liquid medium was difficult. Keratinocyte migration was accelerated by exposure to an Ag/Zn LLEC.
Scratch assay—A cell migration assay was performed using culture inserts (IBIDI®, Verona, Wis.) according to the manufacturers instructions. Cell migration was measured using time-lapse phase-contrast microscopy following withdrawal of the insert. Images were analyzed using the AxioVision Rel 4.8 software.
N-Acetyl Cysteine Treatment—Cells were pretreated with 5 mM of the thiol antioxidant N-acetylcysteine (Sigma) for 1 h before start of the scratch assay. […]

HUVEC cells [1] = test: EF-induced reorientation of endothelial cells (orientation index Oi); type: cell-based, human; conditions: for orientation response / reorientation of cells in an EF: drug 50 μM, 1 hour before and during EF exposure
Experimental: HUVEC cells were seeded in a trough formed by two parallel (1 cm apart) strips of glass coverslip (No. 1, length of 22 mm) fixed to the base of the dish with silicone grease. Scratch lines were made perpendicular to the long axis of the chamber with a fine sterile needle and used as reference marks for directed cell migration. Cells were incubated for 24-48 hours (37° C., 5% CO2) before a roof coverslip was applied and sealed with silicone grease. The final dimensions of the chamber, through which current was passed, were 22×10×0.2 mm. Agar-salt bridges not less than 15 cm long were used to connect silver/silver-chloride electrodes in beakers of Steinberg's solution (58 mM NaCl, 0.67 mM KCl, 0.44 mM Ca(NO3)2, 1.3 mM MgSO4, 4.6 mM Trizma base, pH 7.8-8.0), to pools of excess culture medium at either side of the chamber. Field strengths were measured directly at the beginning of, the end of and during each experiment. No fluctuations in field strength were observed. […] (50 μM), the Rho kinase inhibitor Y27632 (50 μM), both Akt and Rho kinase inhibitors (10 μM each) or latrunculin (50 nM) for 1 hour before EF stimulation. The same concentration of drug was present during EF exposure in a CO2 incubator.
A series of images was taken with an image analyser immediately before EF exposure and at 4, 8 and 24 hours of EF exposure. Cell orientation was quantified as an orientation index (Oi), which is defined as Oi=cos 2(α), where α is the angle formed by the long axis of a cell with a line drawn perpendicular to the field lines. A cell with its long axis parallel to the vector of the EF will have an Oi of −1, and a cell with its long axis exactly perpendicular to the EF vector will have an Oi of +1. […] The significance of this two-dimensional orientation distribution against randomness was calculated using Rayleigh's distribution. A long:short axis ratio was calculated for assessment of elongation.
Cell alignment was quantified using an orientation index Oi=cos 2(α), where α is the angle formed between the long axis of a cell and a line drawn perpendicular to the field lines. […]

HUVEC cells [2] = test: EF-induced elongation of endothelial cells (long:short axis ratio); type: cell-based, human; conditions: drug 50 μM
Experimental: HUVEC cells were seeded in a trough formed by two parallel (1 cm apart) strips of glass coverslip (No. 1, length of 22 mm) fixed to the base of the dish with silicone grease. Scratch lines were made perpendicular to the long axis of the chamber with a fine sterile needle and used as reference marks for directed cell migration. Cells were incubated for 24-48 hours (37° C., 5% CO2) before a roof coverslip was applied and sealed with silicone grease. The final dimensions of the chamber, through which current was passed, were 22×10×0.2 mm. […] Field strengths were measured directly at the beginning of, the end of and during each experiment. […]
A series of images was taken with an image analyser immediately before EF exposure and at 4, 8 and 24 hours of EF exposure. Cell orientation was quantified as an orientation index (Oi), which is defined as Oi=cos 2(α), where α is the angle formed by the long axis of a cell with a line drawn perpendicular to the field lines. […] The significance of this two-dimensional orientation distribution against randomness was calculated using Rayleigh's distribution. A long:short axis ratio was calculated for assessment of elongation.
HUVEC cells elongated dramatically in an EF. […] We quantified the elongation of the cells using a long:short axis ratio. […]

## CC(=O)N[C@@H](CS)C(=O)O [N-Acetyl Cysteine, N-acetylcysteine]
Human keratinocytes
  increased keratinocyte migration observed with LLEC, under N-acetyl cysteine: failed to reproduce the increased migration
Human keratinocytes; listed as N-acetyl cysteine
  increased keratinocyte migration observed with LLEC, under N-acetyl cysteine: prevented

## COc1cc([C@@H]2c3cc4c(cc3[C@H](O)[C@H]3COC(=O)[C@@H]23)OCO4)cc(OC)c1OC [IGF-1R inhibitor, picropodophyllin]
Human keratinocytes; 50 nM picropodophyllin just prior to scratch assay
  increased keratinocyte migration observed with LLEC, under IGF-1R inhibitor: attenuated the increased keratinocyte migration

## COc1cc2ncnc(Nc3ccc(Cl)cc3F)c2cc1OC [VEGFR inhibitor, 4-[(4′-chloro-2′-fluoro)phenylamino]-6,7-dimethoxyquinazoline]
HUVEC cells [1]
  orientation response / reorientation of cells in an EF: completely abolished

## N#CC(=C(/N)Sc1ccccc1N)/C(C#N)=C(\N)Sc1ccccc1N [U0126]
HUVEC cells [1]
  Oi: 0.33±0.03

## 1-L-6-hydroxymethyl-chiro-inositol 2-[(R)-2-O-methyl-3-O-octadecylcarbonate] [Akt inhibitor]
HUVEC cells [1]
  orientation response / reorientation of cells in an EF: significantly decreased
HUVEC cells [2]
  long:short axis ratio in EF-treated cells: significantly decreased

## C[C@@H](N)[C@H]1CC[C@H](C(=O)Nc2ccncc2)CC1 [Y27632]
HUVEC cells [2]
  long:short axis ratio in EF-treated cells: significantly decreased
